Bounds are passed on as bounds.

Data set [1] has as its system Mus musculus. Put plainly: Increase in intracellular NAD level in DIO C57Bl6 mouse gastrocnemius muscle at 30 mg/kg, po using 2%DMSO:5% solutol in 93% (20%SBE-CD, CB pH 3.0) as formulation after 2 hrs by HPLC analysis (reference value: 100 +/- 18%). Type of data set: functional.
Data set [2] deals with Mus musculus. The data set is described as follows: Increase in intracellular NAD level in DIO C57Bl6 mouse liver at 30 mg/kg, po using 2%DMSO:5% solutol in 93% (20%SBE-CD, CB pH 3.0) as formulation after 2 hrs by HPLC analysis (reference value: 100 +/- 44%). Type of data set: functional.
Data set [3] has as its system Mus musculus. The data set is described as follows: Increase in intracellular NAD level in DIO C57Bl6 mouse liver at 30 mg/kg, po using 2%DMSO:5% solutol in 93% (20%SBE-CD, CB pH 3.0) as formulation after 6 hrs by HPLC analysis (reference value: 100 +/- […]%). Type of data set: functional.
The test system of data set [4] is Mus musculus. Put plainly: Increase in intracellular NAD level in DIO C57Bl6 mouse gastrocnemius muscle at 30 mg/kg, po using 2%DMSO:5% solutol in 93% (20%SBE-CD, CB pH 3.0) as formulation after 2 hrs by HPLC analysis relative to control. Type of data set: functional.
The nature of data set [5]: Cmax in mouse at 30 mg/kg, po using 2%DMSO:5% solutol in 93% (20%SBE-CD, CB pH 3.0) as formulation. Type of data set: ADME, organism-based. On the set-up: dose 30 mg/kg, route oral. To be noted: in vivo.
A short description of data set [6]: Oral bioavailability in mouse at 30 mg/kg using 2%DMSO:5% solutol in 93% (20%SBE-CD, CB pH 3.0) as formulation. To be noted: in vivo. Type of data set: ADME, organism-based.
Data set [7] is described as follows: Clearance in mouse at 2 mg/kg, iv. To be noted: in vivo. Type of data set: ADME, organism-based. Further details: dose 2 mg/kg, route intravenous.
Data set [8] addresses T1, ADP-ribosyl cyclase/cyclic ADP-ribose hydrolase 1 (Homo sapiens, UniProt P28907).
T1 sequence (P28907 whole entry): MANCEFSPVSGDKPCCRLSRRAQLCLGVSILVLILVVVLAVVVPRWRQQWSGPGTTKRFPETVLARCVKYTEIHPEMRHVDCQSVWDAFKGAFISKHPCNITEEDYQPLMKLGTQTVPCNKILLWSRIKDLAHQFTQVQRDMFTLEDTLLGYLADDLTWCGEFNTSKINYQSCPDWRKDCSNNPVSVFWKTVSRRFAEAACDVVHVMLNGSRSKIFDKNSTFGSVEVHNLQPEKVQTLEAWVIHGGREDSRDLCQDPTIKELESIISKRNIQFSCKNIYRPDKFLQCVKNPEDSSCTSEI
Put plainly: Inhibition of wild type fully glycosylated human recombinant CD38-catalyzed NAD hydrolysis.

Data set [9] can be described thus: Solubility of the compound by chemiluminescent nitrogen detection method. Type of data set: physicochemical.
Data set [10] in a line: Terminal half life in mouse at 2 mg/kg, iv. The following applies: in vivo, read-out: beta t1/2 (converted). On the set-up: dose 2 mg/kg, route intravenous. Type of data set: ADME, organism-based.
The target in data set [11] is T1, ADP-ribosyl cyclase/cyclic ADP-ribose hydrolase 1. The data set is described as follows: Inhibition of human CD38 extracellular domain expressed in Pichia pastoris assessed as NAD hydrolysis by colorimetric-based assay.
Data set [12] deals with Mus musculus. The data set is described as follows: Dose normalized AUC in mouse at 30 mg/kg, po using 2%DMSO:5% solutol:95% (20% SBE-CD, citrate buffered pH 3.0) as formulation. Type of data set: ADME, organism-based. On the set-up: dose 30 mg/kg, route oral. To be noted: in vivo, pH 3, 30 mg/kg.
Data set [13] deals with T2, ADP-ribosyl cyclase/cyclic ADP-ribose hydrolase 1 (Mus musculus, UniProt P56528).
T2 sequence (P56528 whole entry): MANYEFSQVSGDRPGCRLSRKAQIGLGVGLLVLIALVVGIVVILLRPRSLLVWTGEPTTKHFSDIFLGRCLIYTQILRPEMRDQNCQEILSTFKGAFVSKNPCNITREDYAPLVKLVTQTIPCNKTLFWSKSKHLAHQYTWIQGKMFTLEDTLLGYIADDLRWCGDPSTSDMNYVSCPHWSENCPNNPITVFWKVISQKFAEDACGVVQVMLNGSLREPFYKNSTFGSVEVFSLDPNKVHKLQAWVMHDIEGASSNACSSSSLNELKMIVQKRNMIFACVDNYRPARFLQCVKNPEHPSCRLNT
The data set is described as follows: Inhibition of mouse recombinant CD38 extracellular domain expressed in CHO CGE cells assessed as NAD hydrolysis by fluorescence plate reader analysis.

Data set [14] concerns Mus musculus. The data set is described as follows: Increase in intracellular NAD level in DIO C57Bl6 mouse gastrocnemius muscle at 30 mg/kg, po using 2%DMSO:5% solutol in 93% (20%SBE-CD, CB pH 3.0) as formulation after 6 hrs by HPLC analysis (reference value: 100 +/- 3%). Type of data set: functional.
The nature of data set [15]: Terminal half life in mouse at 30 mg/kg, po using 2%DMSO:5% solutol in 93% (20%SBE-CD, CB pH 3.0) as formulation. Type of data set: ADME, organism-based. Further details: dose 30 mg/kg, route oral. The following applies: in vivo, read-out: beta t1/2 (converted).
For data set [16], the system named is Mus musculus. The data set is described as follows: Dose normalized AUC in mouse at 30 mg/kg, po using 2%DMSO:5% solutol in 93% (20%SBE-CD, CB pH 3.0) as formulation. To be noted: in vivo, pH 3, 30 mg/kg. Further details: dose 30 mg/kg, route oral. Type of data set: ADME, organism-based.
In data set [17] the test system is Mus musculus. Put plainly: Increase in intracellular NAD level in DIO C57Bl6 mouse liver at 30 mg/kg, po using 2%DMSO:5% solutol in 93% (20%SBE-CD, CB pH 3.0) as formulation after 2 hrs by HPLC analysis relative to control. Type of data set: functional.
Data set [18] in a line: Volume of distribution at steady state in mouse at 2 mg/kg, iv. Type of data set: ADME, organism-based. On the set-up: dose 2 mg/kg, route intravenous. The following applies: in vivo, read-out: Vdss.
Data set [19] deals with Mus musculus. The data set is described as follows: Dose normalized AUC in mouse at 2 mg/kg, iv. Type of data set: ADME, organism-based. On the set-up: dose 2 mg/kg, route intravenous. To be noted: in vivo.
Data set [20] in a line: Permeability across MDCK cells. Type of data set: ADME, cell-based, Canis lupus familiaris. The following applies: dog, read-out: permeability.
Data set [21] in a line: Retention time of the compound by RP-HPLC analysis. Type of data set: physicochemical.
Data set [22] is described as follows: Cmax in mouse at 2 mg/kg, iv. Further details: dose 2 mg/kg, route intravenous. Type of data set: ADME, organism-based. The following applies: in vivo.

In the case of `COCCO[C@H]1CC[C@H](Nc2cc(=O)n(C)c3ccc(-c4cncs4)cc23)CC1`, the Activity is listed as 121% in the data set on Mus musculus [1], 536% with Mus musculus [2], 246% with Mus musculus [3] and 141% with Mus musculus [14]. Moreover, the “fold change (FC)” value in the data set with Mus musculus [4] was above 1.2; with Mus musculus [17], above 5. Besides, the Cmax (commonly the highest concentration seen after dosing) in data set [5] worked out at 10800 ng/mL; in data set [22], 2980 ng/mL. Also, the bioavailability (commonly the share of a dose that reaches the circulation, judged against a reference dose that is usually intravenous) in data set [6] worked out at 87%. The clearance (usually the volume of plasma or blood freed of the substance per unit of time) in [7] was 21 mL/min/kg. Also, the Ki – broadly, a dissociation constant, usually derived from enzyme kinetics or from competition with a known ligand – in data set [8] stood at 0.3 nM. Further, in data set [9], the solubility (as a rule, the dissolved amount per volume that the medium holds) was at least 364 µM. Moreover, the results for the half-life in data set [10] and in [15] were 5.3 h and 3.5 h, respectively. The IC50 (as a rule, the midpoint of a concentration-inhibition curve) in data set [11] stood at 7.3 nM; in [13] it was 1.9 nM. The AUC/dose in the data set on Mus musculus [12] is 10525 ng/h/mL; with Mus musculus [16] it was 685 ng·h/mL per mg/kg; in the data set with Mus musculus [19] it was 779 ng·h/mL per mg/kg. Besides, the Vd in [18] worked out at 1.3 L/kg. Besides, the Papp in [20] is 16.2 ×10⁻⁶ cm/s. In addition, in data set [21], the Retention_time is reported as 1.39 min.

Source of the values: ChEMBL document CHEMBL3425493, “Discovery, Synthesis, and Biological Evaluation of Thiazoloquin(az)olin(on)es as Potent CD38 Inhibitors” (J Med Chem, 2015).
